Read-outs that look alike come from different tables or passages of the source.
How the values were obtained:
[1] = system: K+ channel of rabbit mesenteric artery (RMA); assay: K+ channel antagonism: inhibition of pinacidil-induced relaxation of norepinephrine-contracted rabbit mesenteric artery (RMA) rings; type: cell-based
Procedure: The results for potassium channel blocking were obtained by using isolated rabbit mesenteric artery (RMA) procedures. Norepinephrine (5 μM) was used to contract the RMA rings twice, with an hour separating the two contractions. During this hour the tissues equilibrated in physiological salt solution at a resting tension of 1 gram. Upon the plateau of the second contraction 1 μM pinacidil was added to all tissues and the resulting relaxation time course was studied for thirty minutes. […] By studying the ability of the test compounds to inhibit this pinacidil-induced relaxation, the degree of potassium antagonism could be determined. The compounds were applied to the tissues for one hour between the two contractions and the pinacidil-induced relaxation was studied in the continuing presence of the compounds. Thus, the total time of pretreatment with the test compound was 75 minutes before the addition of pinacidil. […]
Data for K^+ channel antagonist activity on rabbit mesenteric artery (RMA) and natriuretic efficacy after […] (IP) administration to rats are collected in Tables III and IV. It was known, for example, that a compound where both methyl groups on the benzylic carbon of Example 9 had been removed was a weak PCO rather than a K^+ channel antagonist. Similarly a compound in which the phenyl was attached directly to the guanidine nitrogen was also a K^+ channel agonist.
^a This is a measure of a compound's ability to inhibit the relaxatio
of norepinephrine (5 μM) contracted rabbit mesenteric artery rings by
pinacidil (1 μM). It is expressed as percent inhibition (mean ± sem
at an inhibitor concentration of 5 μM. Compounds with 65% or g greater
inhibition at 5 μM are considered to be active, with 2065\% inhibition

[2] = Diuretic screen: 5 h net natriuretic efficacy (urinary Na+ excretion) in rats; type: in vivo, female Harlan Sprague-Dawley rats
K+ channel = settings: 1 μM; norepinephrine-contracted RMA rings; cited from earlier work
[3] = Oryctolagus cuniculus, 0.25 h, Table III, inhibition of relaxation by pinacidil 1 μM at 15 min, mean ± sem (number of rings), >=65% considered active, <20% inactive, read-out: RMA K+ Channel Antagonism % I at 5 μM
[4] = Oryctolagus cuniculus, Table III footnote, read-out: RMA K+ channel antagonism, Percent inhibition at 1 μM
[5] = Oryctolagus cuniculus, Table III footnote, read-out: RMA K+ channel antagonism, Percent inhibition at 0.5 μM
[6] = Oryctolagus cuniculus, Table IV, lowest concentration giving >20% inhibition or lowest tested, read-out: RMA K+ Channel Antagonism % I (conc. μM)

CC(NC(=NC#N)Nc1cccnc1)c1ccccc1 (racemic) [Compound 7, N"-Cyano-N-(3-pyridyl)-N'-(1-phenyl)ethylguanidine]
inhibition at 5 µM [1, 3]: 65.3 ± 10.2%

C[C@@H](NC(=NC#N)Nc1cccnc1)c1ccccc1 [Compound 1, (R)-N"-Cyano-N-(3-pyridyl)-N'-(1-phenyl)ethylguanidine]
inhibition at 5 µM [1, 3]: 86.3 ± 5% | inhibition at 1 µM [1, 4]: 17.1% | inhibition at 2.5 µM ([1]; Oryctolagus cuniculus, Table III footnote, 2.5 μM, read-out: RMA K+ channel antagonism, Percent inhibition at 2.5 μM): 88.9 ± 11.2%

CCC(NC(=NC#N)Nc1cccnc1)c1ccccc1 (centres unmarked) [Compound 2, N"-Cyano-N-(3-pyridyl)-N'-(1-phenyl)propylguanidine]
inhibition at 5 µM [1, 3]: 78.8 ± 3.9% | inhibition at 1 µM [1, 4]: 25.6 ± 17.2%

N#CN=C(Nc1cccnc1)NC1(c2ccccc2)CC=CC1 [Compound 3, N"-Cyano-N'-(1-phenylcyclopent-3-enyl)-N-(3-pyridyl)guanidine]
inhibition at 5 µM [1, 3]: 91%

N#CN=C(Nc1cccnc1)N[C@@H](CO)c1ccccc1 [Compound 4, (R)-N"-Cyano-N'-(2-hydroxy-1-phenylethyl)-N-(3-pyridyl)guanidine]
inhibition at 5 µM [1, 3]: 2.6 ± 1.7%

C[C@H](NC(=NC#N)Nc1cccnc1)c1ccccc1 [Compound 8]
inhibition at 5 µM [1, 3]: 22.1 ± 21.2%

CC(C)(NC(=NC#N)Nc1cccnc1)c1ccccc1 [Compound 9]
inhibition at 5 µM [1, 3]: 89.5 ± 3.6%

N#CN=C(Nc1cccnc1)NC1(c2ccccc2)CCCCC1 [Compound 10]
inhibition at 5 µM [1, 3]: 85.5 ± 2.2%

N#CN=C(Nc1cccnc1)NC1(c2ccccc2)CCCC1 [Compound 11]
inhibition at 5 µM [1, 3]: 90.4 ± 2.3% | inhibition at 0.5 µM [1, 5]: 78.8 ± 4.4%

CC(C)C(NC(=NC#N)Nc1cccnc1)c1ccccc1 (centres unmarked) [Compound 12]
inhibition at 5 µM [1, 3]: 85.5 ± 0.6% | inhibition at 0.5 µM [1, 5]: 43.6% | inhibition at 1 µM [1, 4]: 78.2 ± 1.9%

CC(C)(C)C(NC(=NC#N)Nc1cccnc1)c1ccccc1 (centres unmarked) [Compound 13]
inhibition at 5 µM [1, 3]: 83.2 ± 12% | inhibition at 0.5 µM [1, 5]: 82 ± 1.8%

Cc1ccccc1C(C)NC(=NC#N)Nc1cccnc1 (centres unmarked) [Compound 14]
inhibition at 5 µM [1, 3]: 58.7 ± 8.3%

Cc1cccc(C(C)NC(=NC#N)Nc2cccnc2)c1 (centres unmarked) [Compound 15]
inhibition at 5 µM [1, 3]: 82 ± 3.9%

COCC(NC(=NC#N)Nc1cccnc1)c1ccccc1 (centres unmarked) [Compound 16]
inhibition at 5 µM [1, 3]: 51.1 ± 11.6%

N#CN=C(Nc1cccnc1)NC(c1ccccc1)C1CC1 (centres unmarked) [Compound 17, N"-Cyano-N-(3-pyridyl)-N'-phenylcyclopropylmethylguanidine]
inhibition at 5 µM [1, 3]: 93.3 ± 2.2%

N#CN=C(Nc1cccnc1)NC(c1ccccc1)C1CCCC1 (centres unmarked) [Compound 18]
inhibition at 5 µM [1, 3]: 88.1 ± 2%

N#CN=C(Nc1cccnc1)NC(c1ccccc1)C1CCC1 (centres unmarked) [Compound 19]
inhibition at 5 µM [1, 3]: 96 ± 2.1%

CC[C@H](NC(=NC#N)Nc1cccnc1)c1ccccc1 [Compound 20]
inhibition at 5 µM [1, 3]: 13.9 ± 7.2%

CC(NC(=NC#N)Nc1cccnc1)c1cccc(C(F)(F)F)c1 (centres unmarked) [Compound 21]
inhibition at 5 µM [1, 3]: 85.3 ± 3.2%

CC[C@@H](NC(=NC#N)Nc1cccnc1)c1ccccc1 [Compound 22, (R) N"-Cyano-N-(3-pyridyl)-N'-(1-phenylpropyl)guanidine]
inhibition at 5 µM [1, 3]: 89 ± 3.2% | inhibition at 0.1 µM ([1]; Oryctolagus cuniculus, Table III footnote, 0.1 μM, read-out: RMA K+ channel antagonism, Percent inhibition at 0.1 μM): 5 ± 2% | inhibition at 0.25 µM ([1]; Oryctolagus cuniculus, Table III footnote, 0.25 μM, read-out: RMA K+ channel antagonism, Percent inhibition at 0.25 μM): 52 ± 1% | inhibition at 0.5 µM [1, 5]: 81.5 ± 5.9%

CC(NC(=NC#N)Nc1cccnc1)c1ccc(Cl)c(Cl)c1 (centres unmarked) [Compound 23]
inhibition at 5 µM [1, 3]: 90.8 ± 2.8%

CC(NC(=NC#N)Nc1cccnc1)c1cc(Cl)ccc1Cl (centres unmarked) [Compound 24]
inhibition at 5 µM [1, 3]: 86.9 ± 4%

CC(NC(=NC#N)Nc1cccnc1)c1cccc(Cl)c1 (centres unmarked) [Compound 25]
inhibition at 5 µM [1, 3]: 89.9 ± 0.1%

CC(NC(=NC#N)Nc1cccnc1)c1ccccc1Cl (centres unmarked) [Compound 26]
inhibition at 5 µM [1, 3]: 74.7 ± 2.7%

N#CN=C(Nc1cccnc1)N[C@H](CO)c1ccccc1 [Compound 27]
inhibition at 5 µM [1, 3]: 92.5 ± 3.1%

CCCC(NC(=NC#N)Nc1cccnc1)c1ccccc1 (centres unmarked) [Compound 28]
inhibition at 5 µM [1, 3]: 85.2 ± 4.8%

CNc1ccc(NC(=NC#N)NC(C)c2ccccc2)cn1 (centres unmarked) [Compound 29]
inhibition at 5 µM [1, 6]: 63.4%

CCC(NC(=NC#N)Nc1ccc(NC(C)=O)nc1)c1ccccc1 (centres unmarked) [Compound 30]
inhibition at 5 µM [1, 6]: 0%

N#CN=C(Nc1cccnc1)NC1(c2cccc(Br)c2)CCC1 [Compound 31]
inhibition at 0.05 µM [1, 6]: 50%

N#CN=C(Nc1cccnc1)NC1(c2cccc(Cl)c2F)CCC1 [Compound 32]
inhibition at 0.05 µM [1, 6]: 66%

CCN(CC)c1ccc(NC(=NC#N)N[C@H](C)c2ccccc2)cn1 [Compound 33]
inhibition at 5 µM [1, 6]: 10.8%

C[C@@H](NC(=NC#N)Nc1ccc(Cl)nc1)c1ccccc1 [Compound 34]
inhibition at 1 µM [1, 6]: 49.5%

C[C@@H](NC(=NC#N)Nc1ccc(N(C)C)nc1)c1ccccc1 [Compound 35]
inhibition at 5 µM [1, 6]: 10.6%

CC(NC(=NC#N)Nc1ccc(N)nc1)c1ccccc1 (centres unmarked) [Compound 36]
RMA K+ Channel Antagonism % I (conc. μM) ([1]; Table IV, concentration not printed (empty parentheses)): 66.5%

CN(C)c1ccc(NC(=NC#N)N[C@H](CO)c2ccccc2)cn1 [Compound 37]
inhibition at 5 µM [1, 6]: 6.6%

CCC(NC(=NC#N)Nc1cccnc1)c1cccc(F)c1 (centres unmarked) [Compound 38]
inhibition at 0.5 µM [1, 6]: 68.6%

CCC(NC(=NC#N)Nc1cccnc1)c1cccc(Br)c1 (centres unmarked) [Compound 39]
inhibition at 0.5 µM [1, 6]: 87.2%

CC(NC(=NC#N)Nc1cccnc1)c1cc(F)cc(F)c1 (centres unmarked) [Compound 40]
inhibition at 0.5 µM [1, 6]: 55.5%

CCC(NC(=NC#N)Nc1cccnc1)c1cccc(I)c1 (centres unmarked) [Compound 41]
inhibition at 5 µM [1, 6]: 90.1%

N#CN=C(Nc1cccnc1)NC1(c2cccc(F)c2)CCC1 [Compound 42]
inhibition at 0.05 µM [1, 6]: 50%

CCC(NC(=NC#N)Nc1cccnc1)c1ccccc1F (centres unmarked) [Compound 43]
inhibition at 0.05 µM [1, 6]: 30%

CC[C@@H](NC(=NC#N)Nc1ccc(N)nc1)c1ccccc1 [Compound 44, (R)-N-(6-Amino-3-pyridyl)-N"-cyano-N'-(1-phenylpropyl)guanidine]
inhibition at 5 µM [1, 6]: 60%

N#CN=C(Nc1cccnc1)NC1(c2cccc(Cl)c2)CCC1 [Compound 45, N'-[1-(3-Chlorophenyl)cyclobutyl]-N"-cyano-N-(3-pyridyl)guanidine]
inhibition at 0.05 µM [1, 6]: 91%

N#CN=C(Nc1ccc(N)nc1)NC1(c2ccccc2)CCC1 [Compound 46, N"-Cyano-N-(6-amino-3-pyridyl)-N'-(1-phenylcyclobutyl)guanidine]
inhibition at 0.5 µM [1, 6]: 45%

N#CN=C(Nc1ccc(N)nc1)NC1(c2cccc(F)c2)CCC1 [Compound 47]
inhibition at 0.05 µM [1, 6]: 79%

N#CN=C(Nc1cccnc1)NC1(c2cccc(F)c2F)CCC1 [Compound 48]
inhibition at 0.05 µM [1, 6]: 45%

CC(NC(=NC#N)Nc1cccnc1)c1cccc(F)c1 (centres unmarked) [Compound 50]
inhibition at 5 µM [1, 6]: 94.6%

N#CN=C(Nc1cccnc1)NC1(c2ccccc2)CCC1 [Compound 51, N"-Cyano-N-(3-pyridyl)-N'-(1-phenylcyclobutyl)guanidine]
inhibition at 0.5 µM [1, 6]: 82.9%

CCC(NC(=NC#N)Nc1cccnc1)c1cccc(Cl)c1 (centres unmarked) [Compound 52]
inhibition at 0.5 µM [1, 6]: 94%

CC[C@@H](NC(=NC#N)Nc1ccc(N(C)C)nc1)c1ccccc1 [Compound 53, (R)-N"-Cyano-N'-(1-phenylpropyl)-N-[6-(dimethylamino)-3-pyridyl]guanidine]
inhibition at 5 µM [1, 6]: 4.1%

CCC(NC(=NC#N)Nc1ccc[n+]([O-])c1)c1ccccc1 (centres unmarked) [Compound 54, N"-Cyano-N'-(1-phenylpropyl)-N-(3-pyridyl)guanidine, pyridine N-oxide]
inhibition at 5 µM [1, 6]: 15.4%

C[C@@H](NC(=NC#N)Nc1ccc[n+]([O-])c1)c1ccccc1 [Compound 55, (R)-N"-Cyano-N'-(1-phenylethyl)-N-(3-pyridyl)guanidine, pyridine N-oxide]
inhibition at 5 µM [1, 6]: 16.3%

CCNc1ccc(NC(=NC#N)N[C@H](C)c2ccccc2)cn1 [Compound 56]
inhibition at 5 µM [1, 6]: 19.1%

COCCCNc1ccc(NC(=NC#N)N[C@H](C)c2ccccc2)cn1 [Compound 57]
inhibition at 5 µM [1, 6]: 7.8%

CC(NC(=NC#N)Nc1cccnc1)c1cccc(F)c1F (centres unmarked) [Compound 58]
inhibition at 0.5 µM [1, 6]: 92.1%

CC(C)Nc1ccc(NC(=NC#N)N[C@H](C)c2ccccc2)cn1 [Compound 59]
inhibition at 5 µM [1, 6]: 8.5%

N#CN=C(Nc1cccnc1)NC1(c2ccccc2)CC1 [Compound 63]
inhibition at 5 µM [1, 6]: 86%

CC(N/C(=N\C#N)Nc1ccncc1)C(C)(C)C (centres unmarked) [Pinacidil]
inhibition at 5 µM [1, 3]: 0% | diuretic response (in words) ([2]; 5 mg/kg oral dosage): Antidiuresis | 5 h Net Natriuretic Efficacy ([2]; Table III, 5 mg/kg oral dosage (footnote j)): -60 μEq Na+/mg/kg | K+ channel dependent vasodilation (in words) (K+ channel): maximal K^+ channel dependent vasodilation
